The subject of one assay is CCRF-CEM. As to the kind of experiment: In vitro inhibition of CCRF-CEM human leukemic lymphoblasts proliferation was determined. The format is functional, cell-based.
The nature of assay [1]: In vitro inhibition of P3UCLA human adenocarcinoma cell proliferation was determined in MTT proliferation assay. The class given is functional.

≈ marks a conversion by molar mass, not a printed value.

On to `CC[C@]1(O)CC2CN(CCc3c([nH]c4ccccc34)[C@@](C(=O)OC)(c3cc4c(cc3OC)N(C)C3C45CCN4CC=C[C@](CC)(C45)C(OC(C)=O)[C@]3(O)C(=O)OC)C2)C1` (stereo partly specified), for which, in the assay on CCRF-CEM, the IC50 worked out at 0.1 µg/mL (≈ 0.123 µM).
Consider `CC[C@]1(O)CC2CN(CCc3c([nH]c4ccccc34)[C@@](C(=O)OC)(c3cc4c(cc3OC)N(C)C3C45CCN4CC=C[C@](CC)(C45)C(OC(=O)CCC(=O)O)[C@]3(O)C(=O)OC)C2)C1` (stereo partly specified), for which the figures for the IC50 (in the assay with CCRF-CEM; in assay [1]) were 1.4 µg/mL (≈ 1.61 µM) and 0.003 µg/mL (≈ 0.00345 µM), respectively.
As for `CC[C@]1(O)CC2CN(CCc3c([nH]c4ccccc34)[C@@](C(=O)OC)(c3cc4c(cc3OC)N(C)C3C45CCN4CC=C[C@](CC)(C45)C(O)[C@]3(O)C(=O)OC)C2)C1` (stereo partly specified), in assay [1], half-maximal inhibition (IC50) was put at 0.0003 µg/mL (≈ 0.00039 µM).
As for `CC[C@]1(O)C[C@@H]2CN(CCc3c([nH]c4ccccc34)[C@@](C(=O)OC)(c3cc4c(cc3OC)N(C)[C@H]3[C@@](O)(C(=O)NN)[C@H](O)[C@]5(CC)C=CCN6CC[C@]43[C@@H]65)C2)C1` [DESACETYLVINBLASTINEHYDRAZIDE], the figures for the IC50 (in the assay with CCRF-CEM; in assay [1]) were 0.03 µg/mL (≈ 0.039 µM) and less than 0.0003 µg/mL, respectively.

The values are drawn from ChEMBL document CHEMBL1124410, “New antitumor monoclonal antibody-vinca conjugates LY203725 and related compounds: design, preparation, and representative in vivo activity” (J Med Chem, 1989).
